Results published in US11780893B2, “Kv1.3 blockers” (Zealand Pharma A/S, priority 2019, dated 2023).
Bridge positions count the residues as written; N and C are the ends. Square brackets hold non-standard residues; d marks the D form. Peptide text beside a SMILES is read from it. Phe(4-NH2) = Nc1ccc(C[C@H](N)C(=O)O)cc1; Nle = CCCC[C@H](N)C(=O)O

Key:
Rat whole blood = Rat whole blood (Rattus norvegicus, UniProt P15384)
Kv1.3 = biological target: T1, Kv1.3 (Homo sapiens, UniProt P22001); experiment: cell-based; details: CHO cells, whole-cell patch clamp; read-out: Potency IC50 (nM) Kv1.3
T1 construct: expressed in transfected cells; host or cells: Chinese Hamster Ovary (CHO)

Kv1.2 = biological target: T2, Kv1.2 (Homo sapiens, UniProt P16389); experiment: cell-based; details: CHO cells, whole-cell patch clamp; read-out: Potency IC50 (nM) Kv1.2
T2 construct: expressed in transfected cells; host or cells: Chinese Hamster Ovary (CHO)

Kv1.1 = biological target: T3, Kv1.1 (Homo sapiens, UniProt Q09470); experiment: cell-based; details: for IC50: CHO cells, whole-cell patch clamp, read-out: Potency IC50 (nM) Kv1.1; for Selectivity Kv1.1/Kv1.3: ratio IC50[Kv1.1]/IC50[Kv1.3]
T3 construct: expressed in transfected cells; host or cells: Chinese Hamster Ovary (CHO)

[1] = biological target: T4, human Kv1.3 voltage-gated K+ channel (Homo sapiens, UniProt P22001); experiment: cell-based; details: inhibition of thallium flux, CHO-DUKX cells with human Kv1.3; read-out: IC50
T4 construct: host or cells: CHO-DUKX

Kv1.6 = biological target: T5, Kv1.6 (Homo sapiens, UniProt P17658); experiment: cell-based; details: for IC50: CHO cells, whole-cell patch clamp, read-out: Potency IC50 (nM) Kv1.6; for Selectivity Kv1.6/Kv1.3: ratio IC50[Kv1.6]/IC50[Kv1.3]
T5 construct: expressed in transfected cells; host or cells: Chinese Hamster Ovary (CHO)
T5 sequence (P17658 whole entry): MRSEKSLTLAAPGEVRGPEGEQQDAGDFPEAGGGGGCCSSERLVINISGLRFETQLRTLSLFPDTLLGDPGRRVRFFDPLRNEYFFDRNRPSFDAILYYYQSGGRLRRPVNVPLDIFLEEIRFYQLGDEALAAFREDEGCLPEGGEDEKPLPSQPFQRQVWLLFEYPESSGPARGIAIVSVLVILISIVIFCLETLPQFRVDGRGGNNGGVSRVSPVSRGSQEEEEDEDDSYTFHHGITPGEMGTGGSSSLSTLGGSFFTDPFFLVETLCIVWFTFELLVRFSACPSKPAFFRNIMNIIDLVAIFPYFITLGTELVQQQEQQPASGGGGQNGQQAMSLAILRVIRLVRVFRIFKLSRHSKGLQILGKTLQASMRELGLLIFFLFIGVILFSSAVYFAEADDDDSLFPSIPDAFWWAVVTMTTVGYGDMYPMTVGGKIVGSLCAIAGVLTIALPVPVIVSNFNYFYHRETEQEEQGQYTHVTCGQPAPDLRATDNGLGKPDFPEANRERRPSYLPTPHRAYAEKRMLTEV

T1 sequence (P22001 whole entry): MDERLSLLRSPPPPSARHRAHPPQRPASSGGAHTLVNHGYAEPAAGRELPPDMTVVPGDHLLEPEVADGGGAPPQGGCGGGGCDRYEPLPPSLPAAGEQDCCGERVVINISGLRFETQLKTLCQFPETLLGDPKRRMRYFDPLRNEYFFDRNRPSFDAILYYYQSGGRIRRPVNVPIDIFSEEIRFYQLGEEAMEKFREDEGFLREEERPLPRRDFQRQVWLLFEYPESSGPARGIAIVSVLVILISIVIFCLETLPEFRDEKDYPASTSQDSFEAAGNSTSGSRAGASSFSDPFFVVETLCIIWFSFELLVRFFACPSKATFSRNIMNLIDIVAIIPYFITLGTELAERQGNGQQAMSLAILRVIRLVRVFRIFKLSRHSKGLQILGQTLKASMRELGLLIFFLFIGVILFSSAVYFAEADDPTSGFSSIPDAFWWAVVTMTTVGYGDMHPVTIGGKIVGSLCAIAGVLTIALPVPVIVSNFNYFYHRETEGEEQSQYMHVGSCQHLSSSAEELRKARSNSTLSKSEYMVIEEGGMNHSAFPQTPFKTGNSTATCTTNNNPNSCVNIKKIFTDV
T4 sequence (P22001 whole entry): as above
T2 sequence (P16389 whole entry): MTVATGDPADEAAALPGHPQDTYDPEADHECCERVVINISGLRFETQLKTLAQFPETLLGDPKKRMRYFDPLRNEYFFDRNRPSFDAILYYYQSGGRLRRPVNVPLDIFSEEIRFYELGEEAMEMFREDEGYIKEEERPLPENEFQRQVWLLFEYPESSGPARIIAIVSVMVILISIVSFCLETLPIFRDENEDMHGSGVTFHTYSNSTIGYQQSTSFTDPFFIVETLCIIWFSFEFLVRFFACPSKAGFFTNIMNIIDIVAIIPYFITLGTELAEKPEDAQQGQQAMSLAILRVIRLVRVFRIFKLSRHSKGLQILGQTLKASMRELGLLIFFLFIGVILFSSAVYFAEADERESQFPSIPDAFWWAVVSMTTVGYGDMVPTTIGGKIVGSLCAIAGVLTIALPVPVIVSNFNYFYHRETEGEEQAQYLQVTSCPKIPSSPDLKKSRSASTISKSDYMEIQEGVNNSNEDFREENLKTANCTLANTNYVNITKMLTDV
Rat whole blood, sequence (P15384 whole entry): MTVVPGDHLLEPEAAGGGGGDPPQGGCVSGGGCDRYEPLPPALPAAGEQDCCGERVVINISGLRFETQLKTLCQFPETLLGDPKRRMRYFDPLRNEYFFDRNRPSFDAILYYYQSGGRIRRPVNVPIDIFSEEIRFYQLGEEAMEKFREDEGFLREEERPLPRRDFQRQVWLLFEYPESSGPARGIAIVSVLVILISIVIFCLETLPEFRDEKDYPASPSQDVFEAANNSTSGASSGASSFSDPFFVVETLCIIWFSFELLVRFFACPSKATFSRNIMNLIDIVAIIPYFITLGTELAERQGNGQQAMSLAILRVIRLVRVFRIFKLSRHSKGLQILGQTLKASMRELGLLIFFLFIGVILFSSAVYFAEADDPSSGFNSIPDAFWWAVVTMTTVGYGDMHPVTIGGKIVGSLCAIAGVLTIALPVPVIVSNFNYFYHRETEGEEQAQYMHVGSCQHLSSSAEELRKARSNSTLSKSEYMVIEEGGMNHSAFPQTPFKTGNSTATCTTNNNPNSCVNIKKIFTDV
T3 sequence (Q09470 whole entry): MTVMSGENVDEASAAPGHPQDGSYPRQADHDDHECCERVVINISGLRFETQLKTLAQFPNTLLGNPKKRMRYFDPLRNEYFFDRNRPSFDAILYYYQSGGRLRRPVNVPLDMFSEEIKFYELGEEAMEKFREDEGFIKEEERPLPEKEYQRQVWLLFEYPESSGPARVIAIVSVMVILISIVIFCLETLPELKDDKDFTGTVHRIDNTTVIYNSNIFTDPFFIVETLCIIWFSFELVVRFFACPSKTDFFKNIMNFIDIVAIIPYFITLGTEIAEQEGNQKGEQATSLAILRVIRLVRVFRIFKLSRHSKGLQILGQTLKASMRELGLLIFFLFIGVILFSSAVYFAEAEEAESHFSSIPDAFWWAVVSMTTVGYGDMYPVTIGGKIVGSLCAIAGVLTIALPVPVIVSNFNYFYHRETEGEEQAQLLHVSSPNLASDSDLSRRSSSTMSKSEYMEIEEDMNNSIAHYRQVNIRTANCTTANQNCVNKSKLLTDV

| SMILES | IC50 (Rat whole blood) [nM] | IC50 (Kv1.3) [nM] | IC50 (Kv1.2) [nM] | IC50 (Kv1.1) [nM] | Selectivity Kv1.1/Kv1.3 (Kv1.1) | IC50 [1] [nM] | IC50 (Kv1.6) [nM] | Selectivity Kv1.6/Kv1.3 (Kv1.6) |
| --- | --- | --- | --- | --- | --- | --- | --- | --- |
| CC[C@H](C)[C@@H]1NC(=O)[C@H](C)NC(=O)[C@H](CCCCN)NC(=O)[C@H](CC(C)C)NC(=O)[C@@H]2CSSC[C@@H](C(=O)N[C@@H](Cc3ccc(O)cc3)C(=O)N3CCC[C@H]3C(=O)N[C@@H](CCCNC(=N)N)C(N)=O)NC(=O)[C@H](Cc3c[nH]cn3)NC(=O)[C@@H]3CSSC[C@H](NC(=O)[C@H](CCC(=O)O)NC(=O)[C@H](C(C)C)NC(=O)[C@H](CO)NC(=O)[C@H](C)NC(=O)[C@H](CO)NC(=O)[C@@H](NC(=O)[C@H](CCCNC(=N)N)NC(=O)[C@H](CCSC)NC(=O)[C@H](CC(=O)O)NC(=O)[C@H](CCSC)NC(=O)[C@@H](N)CC(N)=O)CSSC[C@H](NC(=O)[C@H](CCCCN)NC(=O)CNC(=O)[C@H](Cc4ccccc4)NC(=O)[C@H]([C@@H](C)CC)NC(=O)[C@H](CO)NC(=O)CNC1=O)C(=O)N[C@@H](CCSC)C(=O)N[C@@H](CC(N)=O)C(=O)N[C@@H](CCCCN)C(=O)N[C@@H](CCCCN)C(=O)N3)C(=O)N[C@@H](CCCCN)C(=O)N[C@@H](CCC(N)=O)C(=O)N[C@@H](CCCCN)C(=O)N2 [Compound 37] (H-NMDMRCSASVECKQKCLKAIGSIFGKCMNKKCHCYPR-NH2; disulfide 6-27, 12-32, 16-34) | ≤ 1 | 0.19 | 338 | > 3000 | >16100 | 0.14 | > 3000 | >16100 |
| CCCC[C@@H]1NC(=O)[C@@H]2CSSC[C@H](NC(=O)[C@H](CCCNC(=N)N)NC(=O)[C@H](CCCC)NC(=O)[C@H](CC(=O)O)NC(=O)[C@H](CCCC)NC(=O)[C@@H](N)CC(N)=O)C(=O)N[C@@H](CO)C(=O)N[C@@H](C)C(=O)N[C@@H](CO)C(=O)N[C@@H](CCCCN)C(=O)N[C@@H](CCC(=O)O)C(=O)N[C@H]3CSSC[C@H](NC(=O)[C@H](CCCCN)NC(=O)[C@H](CCCCN)NC(=O)[C@H](CC(N)=O)NC1=O)C(=O)N[C@@H](CCCCN)C(=O)N[C@H](C(=O)N[C@@H](Cc1ccc(O)cc1)C(=O)N1CCC[C@H]1C(=O)N[C@@H](CCCNC(=N)N)C(N)=O)CSSC[C@H](NC(=O)[C@H](CCCCN)NC(=O)[C@H](CCC(N)=O)NC(=O)[C@H](CCCCN)NC3=O)C(=O)N[C@@H](CC(C)C)C(=O)N[C@@H](CCCCN)C(=O)N[C@@H](C)C(=O)N[C@@H]([C@@H](C)CC)C(=O)NCC(=O)N[C@@H](CO)C(=O)N[C@@H]([C@@H](C)CC)C(=O)N[C@@H](Cc1ccccc1)C(=O)NCC(=O)N[C@@H](CCCCN)C(=O)N2 [Compound 63] (H-N[Nle]D[Nle]RCSASKECKQKCLKAIGSIFGKC[Nle]NKKCKCYPR-NH2; disulfide 6-27, 12-32, 16-34) | ≤ 1 | 0.31 | 184 | > 3000 | >9600 | 0.13 | 1230 | – |
| CCCC[C@@H]1NC(=O)[C@@H]2CSSC[C@H](NC(=O)[C@@H](N)CCCNC(=N)N)C(=O)N[C@@H](CO)C(=O)N[C@@H](C)C(=O)N[C@@H](CO)C(=O)N[C@@H](C(C)C)C(=O)N[C@@H](CCC(=O)O)C(=O)N[C@H]3CSSC[C@H](NC(=O)[C@H](CCCCN)NC(=O)[C@H](CCCCN)NC(=O)[C@H](CC(N)=O)NC1=O)C(=O)N[C@@H](CCCCN)C(=O)N[C@H](C(=O)N[C@@H](Cc1ccc(O)cc1)C(=O)N1CCC[C@H]1C(=O)N[C@@H](CCCNC(=N)N)C(N)=O)CSSC[C@H](NC(=O)[C@H](CCCCN)NC(=O)[C@H](CCC(N)=O)NC(=O)[C@H](CCCCN)NC3=O)C(=O)N[C@@H](CC(C)C)C(=O)N[C@@H](CCCCN)C(=O)N[C@@H](C)C(=O)N[C@@H]([C@@H](C)CC)C(=O)NCC(=O)N[C@@H](CO)C(=O)N[C@@H]([C@@H](C)CC)C(=O)N[C@@H](Cc1ccccc1)C(=O)NCC(=O)N[C@@H](CCCCN)C(=O)N2 [Compound 106] (H-RCSASVECKQKCLKAIGSIFGKC[Nle]NKKCKCYPR-NH2; disulfide 2-23, 8-28, 12-30) | ≤ 1 | 0.4 | 280 | > 3000 | >7600 | 0.092 | 1300 | – |
| CCCC[C@@H]1NC(=O)[C@@H]2CSSC[C@H](NC(C)=O)C(=O)N[C@@H](CO)C(=O)N[C@@H](C)C(=O)N[C@@H](CO)C(=O)N[C@@H](C(C)C)C(=O)N[C@@H](CCC(=O)O)C(=O)N[C@H]3CSSC[C@H](NC(=O)[C@H](CCCCN)NC(=O)[C@H](CCCCN)NC(=O)[C@H](CC(N)=O)NC1=O)C(=O)N[C@@H](CCCCN)C(=O)N[C@H](C(=O)N[C@@H](Cc1ccc(O)cc1)C(=O)N1CCC[C@H]1C(=O)N[C@@H](CCCNC(=N)N)C(N)=O)CSSC[C@H](NC(=O)[C@H](CCCCN)NC(=O)[C@H](CCC(N)=O)NC(=O)[C@H](CCCCN)NC3=O)C(=O)N[C@@H](CC(C)C)C(=O)N[C@@H](CCCCN)C(=O)N[C@@H](C)C(=O)N[C@@H]([C@@H](C)CC)C(=O)NCC(=O)N[C@@H](CO)C(=O)N[C@@H]([C@@H](C)CC)C(=O)N[C@@H](Cc1ccccc1)C(=O)NCC(=O)N[C@@H](CCCCN)C(=O)N2 [Compound 105] (Ac-CSASVECKQKCLKAIGSIFGKC[Nle]NKKCKCYPR-NH2; disulfide 1-22, 7-27, 11-29) | ≤ 1 | 0.24 | 384 | > 3000 | >12400 | 0.16 | > 3000 | >12400 |
| CCCC[C@H](NC(=O)[C@H](CC(=O)O)NC(=O)[C@H](CCCC)NC(=O)[C@@H](N)CO)C(=O)N[C@@H](CCCNC(=N)N)C(=O)N[C@H]1CSSC[C@@H]2NC(=O)[C@H](CCCCN)NC(=O)CNC(=O)[C@H](Cc3ccccc3)NC(=O)[C@H]([C@@H](C)CC)NC(=O)[C@H](CO)NC(=O)CNC(=O)[C@H]([C@@H](C)CC)NC(=O)[C@H](C)NC(=O)[C@H](CCCCN)NC(=O)[C@H](CC(C)C)NC(=O)[C@@H]3CSSC[C@@H](C(=O)N[C@@H](Cc4ccc(N)cc4)C(=O)N4CCC[C@H]4C(=O)N[C@@H](CCCNC(=N)N)C(N)=O)NC(=O)[C@H](CCCCN)NC(=O)[C@H](CSSC[C@H](NC(=O)[C@H](CCC(=O)O)NC(=O)[C@H](C(C)C)NC(=O)[C@H](CO)NC(=O)[C@H](C)NC(=O)[C@H](CO)NC1=O)C(=O)N[C@@H](CCCCN)C(=O)N[C@@H](CCC(N)=O)C(=O)N[C@@H](CCCCN)C(=O)N3)NC(=O)[C@H](CCCCN)NC(=O)[C@H](CCCCN)NC(=O)[C@H](CC(N)=O)NC(=O)[C@H](CCSC)NC2=O [Compound 70] (H-S[Nle]D[Nle]RCSASVECKQKCLKAIGSIFGKCMNKKCKC[Phe(4-NH2)]PR-NH2; disulfide 6-27, 12-32, 16-34) | ≤ 1 | 0.25 | 423 | > 3000 | >12200 | 0.13 | > 3000 | >12200 |
| CCCC[C@H](NC(=O)[C@@H](N)CO)C(=O)N[C@@H](CC(=O)O)C(=O)N[C@@H](CCC(=O)O)C(=O)N[C@@H](CCCNC(=N)N)C(=O)N[C@H]1CSSC[C@@H]2NC(=O)[C@H](CCCCN)NC(=O)CNC(=O)[C@H](Cc3ccccc3)NC(=O)[C@H]([C@@H](C)CC)NC(=O)[C@H](CO)NC(=O)CNC(=O)[C@H]([C@@H](C)CC)NC(=O)[C@H](C)NC(=O)[C@H](CCCCN)NC(=O)[C@H](CC(C)C)NC(=O)[C@@H]3CSSC[C@@H](C(=O)N[C@@H](Cc4ccc(O)cc4)C(=O)N4CCC[C@H]4C(=O)N[C@@H](CCCNC(=N)N)C(N)=O)NC(=O)[C@H](CCCCN)NC(=O)[C@H](CSSC[C@H](NC(=O)[C@H](CCC(=O)O)NC(=O)[C@H](C(C)C)NC(=O)[C@H](CO)NC(=O)[C@H](C)NC(=O)[C@H](CO)NC1=O)C(=O)N[C@@H](CCCCN)C(=O)N[C@@H](CCC(N)=O)C(=O)N[C@@H](CCCCN)C(=O)N3)NC(=O)[C@H](CCCCN)NC(=O)[C@H](CCCCN)NC(=O)[C@H](CC(N)=O)NC(=O)[C@H](CCSC)NC2=O [Compound 76] (H-S[Nle]DERCSASVECKQKCLKAIGSIFGKCMNKKCKCYPR-NH2; disulfide 6-27, 12-32, 16-34) | ≤ 1 | 0.28 | 122 | > 3000 | >10600 | 0.093 | > 3000 | >10600 |
| CCCC[C@@H]1NC(=O)[C@@H]2CSSC[C@H](NC(=O)[C@H](CCCNC(=N)N)NC(=O)[C@H](CCCC)NC(=O)[C@H](CC(=O)O)NC(=O)[C@H](CCCC)NC(=O)[C@@H](N)CC(N)=O)C(=O)N[C@@H](CO)C(=O)N[C@@H](C)C(=O)N[C@@H](CO)C(=O)N[C@@H](C(C)C)C(=O)N[C@@H](CCC(=O)O)C(=O)N[C@H]3CSSC[C@H](NC(=O)[C@H](CCCCN)NC(=O)[C@H](CCCCN)NC(=O)[C@H](CC(N)=O)NC1=O)C(=O)N[C@@H](CCCCN)C(=O)N[C@H](C(=O)N[C@@H](Cc1ccc(O)cc1)C(=O)N1CCC[C@H]1C(=O)N[C@@H](CCCNC(=N)N)C(N)=O)CSSC[C@H](NC(=O)[C@H](CCCCN)NC(=O)[C@H](CCC(N)=O)NC(=O)[C@H](CCCCN)NC3=O)C(=O)N[C@@H](CC(C)C)C(=O)N[C@@H](CCCCN)C(=O)N[C@@H](C)C(=O)N[C@@H]([C@@H](C)CC)C(=O)NCC(=O)N[C@@H](CO)C(=O)N1CCC[C@H]1C(=O)N[C@@H](Cc1ccccc1)C(=O)NCC(=O)N[C@@H](CCCCN)C(=O)N2 [Compound 62] (H-N[Nle]D[Nle]RCSASVECKQKCLKAIGSPFGKC[Nle]NKKCKCYPR-NH2; disulfide 6-27, 12-32, 16-34) | ≤ 1 | 0.26 | 449 | > 3000 | >11600 | 0.13 | 2350 | – |
